Measurements taken from BindingDB's records for doi:10.1021/acs.jmedchem.5b01840 (Norgine, 2016).

assay: Antagonist activity at CCR9 receptor in human MOLT4 cells assessed as inhibition of CCl25-mediated cell migration preincubated for 30 mins followed CCL25 addition incubated for 2 hrs by ChemoTx plate system

Row | Structure (SMILES) | Ki [nM]
1 | CC(C)(C)c1ccc(S(=O)(=O)Nc2ccc(Cl)c3c2C(=O)N(Cc2ccc[n+]([O-])c2)C3=O)cc1 [US9969687, Compound 65] | 38
2 | CC(C)(C)c1ccc(S(=O)(=O)Nc2ccc(Cl)c3c2C(=O)N(Cc2cccnc2)C3=O)cc1 [US9969687, Compound 64] | 357
3 | Cc1ncccc1N1C(=O)c2c(Cl)ccc(NS(=O)(=O)c3ccc(C(C)(C)C)cc3)c2C1=O [US9969687, Compound 175] | 14
4 | Cc1c(N2C(=O)c3c(Cl)ccc(NS(=O)(=O)c4ccc(C(C)(C)C)cc4)c3C2=O)ccc[n+]1[O-] [US9969687, Compound 176] | 24
5 | COc1ccncc1N1C(=O)c2c(Cl)ccc(NS(=O)(=O)c3ccc(C(C)(C)C)cc3)c2C1=O [US9969687, Compound 119] | 3
6 | COc1ncccc1N1C(=O)c2c(Cl)ccc(NS(=O)(=O)c3ccc(C(C)(C)C)cc3)c2C1=O [US9969687, Compound 183] | 32

Second part, the compound after the results:

Row | Ki [nM] | Structure (SMILES)
7 | > 100 | CC(C)(C)c1ccc(S(=O)(=O)Nc2ccc(Cl)c3c2C(=O)N(Cc2ccncc2)C3=O)cc1 [US9969687, Compound 201]
8 | 113 | COc1c(N2C(=O)c3c(Cl)ccc(NS(=O)(=O)c4ccc(C(C)(C)C)cc4)c3C2=O)ccc[n+]1[O-] [US9969687, Compound 194]
9 | 19 | Cc1cccc(N2C(=O)c3c(Cl)ccc(NS(=O)(=O)c4ccc(C(C)(C)C)cc4)c3C2=O)n1 [US9969687, Compound 228]
10 | 40 | CC(C)(C)c1ccc(S(=O)(=O)Nc2ccc(Cl)c3c2C(=O)N(Cc2cccc[n+]2[O-])C3=O)cc1 [US9969687, Compound 199]
11 | 9 | CC(C)(C)c1ccc(S(=O)(=O)Nc2ccc(Cl)c3c2C(=O)N(c2ccccn2)C3=O)cc1 [US9969687, Compound 222]
12 | > 300 | Cc1ccc(N2C(=O)c3c(Cl)ccc(NS(=O)(=O)c4ccc(C(C)(C)C)cc4)c3C2=O)c(C)n1 [US9969687, Compound 224]
13 | 91 | CC(C)(C)c1ccc(S(=O)(=O)Nc2ccc(Cl)c3c2C(=O)N(c2cccnc2F)C3=O)cc1 [US9969687, Compound 218]
